Measurements: the supplement of paper PMC8149375

What was measured:
UO-31 [1] = assay: GI50 of drug in presence of dasatinib; higher = less potent; conditions: treatment: drug + dasatinib (fixed dose, not stated); 5 days
Description: (§1)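 Primary HTS combination arm: 8 RCC cell lines treated with 8 doses (up to 10 uM) of each library drug plus a fixed dose of dasatinib (dose not stated) for 5 days; viability read by CellTiter-Glo and normalised to DMSO. GI50 was fitted with XLfit, AUC is the area under the dose-response curve, and minimum viability is the lowest fraction of DMSO viability across doses.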

A498 [2] = assay: as above; conditions: treatment: drug + dasatinib (fixed dose, not stated); 5 days
Description: as §1

CAKI-1 [3] = assay: as above; conditions: treatment: drug + dasatinib (fixed dose, not stated); 5 days
Description: as §1

SN12C [4] = assay: as above; conditions: treatment: drug + dasatinib (fixed dose, not stated); 5 days
Description: as §1

TK-10 [5] = assay: as above; conditions: treatment: drug + dasatinib (fixed dose, not stated); 5 days
Description: as §1

UO-31 [6] = assay: AUC of dose-response viability curve, drug + dasatinib, normalised to DMSO (arbitrary (AUC of normalised viability)); higher = less growth inhibition; conditions: treatment: drug + dasatinib (fixed dose, not stated); 5 days
Description: as §1

ACHN [7] = assay: as above; conditions: treatment: drug + dasatinib (fixed dose, not stated); 5 days
Description: as §1

786-O [8] = assay: as above; conditions: treatment: drug + dasatinib (fixed dose, not stated); 5 days
Description: as §1

A498 [9] = assay: as above; conditions: treatment: drug + dasatinib (fixed dose, not stated); 5 days
Description: as §1

CAKI-1 [10] = assay: as above; conditions: treatment: drug + dasatinib (fixed dose, not stated); 5 days
Description: as §1

SN12C [11] = assay: as above; conditions: treatment: drug + dasatinib (fixed dose, not stated); 5 days
Description: as §1

769-P [12] = assay: as above; conditions: treatment: drug + dasatinib (fixed dose, not stated); 5 days
Description: as §1

TK-10 [13] = assay: as above; conditions: treatment: drug + dasatinib (fixed dose, not stated); 5 days
Description: as §1

UO-31 [14] = assay: minimum viability across doses, drug + dasatinib, relative to DMSO (fraction); higher = less growth inhibition; conditions: treatment: drug + dasatinib (fixed dose, not stated); 5 days
Description: as §1

ACHN [15] = assay: as above; conditions: treatment: drug + dasatinib (fixed dose, not stated); 5 days
Description: as §1

786-O [16] = assay: as above; conditions: treatment: drug + dasatinib (fixed dose, not stated); 5 days
Description: as §1

A498 [17] = assay: as above; conditions: treatment: drug + dasatinib (fixed dose, not stated); 5 days
Description: as §1

CAKI-1 [18] = assay: as above; conditions: treatment: drug + dasatinib (fixed dose, not stated); 5 days
Description: as §1

SN12C [19] = assay: as above; conditions: treatment: drug + dasatinib (fixed dose, not stated); 5 days
Description: as §1

769-P [20] = assay: as above; conditions: treatment: drug + dasatinib (fixed dose, not stated); 5 days
Description: as §1

TK-10 [21] = assay: as above; conditions: treatment: drug + dasatinib (fixed dose, not stated); 5 days
Description: as §1

UO-31 [22] = assay: GI50, drug alone; higher = less potent; conditions: treatment: drug alone; 5 days
Description: as §1, with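 “HTS:” for “HTS combination arm:”, “alone” for “plus a fixed dose of dasatinib (dose not stated)”, “XLfit (4-parameter),” for “XLfit,”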

ACHN [23] = assay: GI50, drug alone; higher = less potent; conditions: treatment: drug alone; 5 days
Description: as §1, with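 “HTS:” for “HTS combination arm:”, “alone” for “plus a fixed dose of dasatinib (dose not stated)”, “XLfit (4-parameter),” for “XLfit,”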

786-O [24] = assay: GI50, drug alone; higher = less potent; conditions: treatment: drug alone; 5 days
Description: as §1, with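 “HTS:” for “HTS combination arm:”, “alone” for “plus a fixed dose of dasatinib (dose not stated)”, “XLfit (4-parameter),” for “XLfit,”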

A498 [25] = assay: GI50, drug alone; higher = less potent; conditions: treatment: drug alone; 5 days
Description: as §1, with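 “HTS:” for “HTS combination arm:”, “alone” for “plus a fixed dose of dasatinib (dose not stated)”, “XLfit (4-parameter),” for “XLfit,”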

CAKI-1 [26] = assay: GI50, drug alone; higher = less potent; conditions: treatment: drug alone; 5 days
Description: as §1, with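 “HTS:” for “HTS combination arm:”, “alone” for “plus a fixed dose of dasatinib (dose not stated)”, “XLfit (4-parameter),” for “XLfit,”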

SN12C [27] = assay: GI50, drug alone; higher = less potent; conditions: treatment: drug alone; 5 days
Description: as §1, with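 “HTS:” for “HTS combination arm:”, “alone” for “plus a fixed dose of dasatinib (dose not stated)”, “XLfit (4-parameter),” for “XLfit,”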

769-P [28] = assay: GI50, drug alone; higher = less potent; conditions: treatment: drug alone; 5 days
Description: as §1, with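 “HTS:” for “HTS combination arm:”, “alone” for “plus a fixed dose of dasatinib (dose not stated)”, “XLfit (4-parameter),” for “XLfit,”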

TK-10 [29] = assay: GI50, drug alone; higher = less potent; conditions: treatment: drug alone; 5 days
Description: as §1, with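 “HTS:” for “HTS combination arm:”, “alone” for “plus a fixed dose of dasatinib (dose not stated)”, “XLfit (4-parameter),” for “XLfit,”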

UO-31 [30] = assay: minimum viability across doses, drug alone, relative to DMSO (fraction); higher = less growth inhibition; conditions: treatment: drug alone; 5 days
Description: as §1, with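 “HTS:” for “HTS combination arm:”, “alone” for “plus a fixed dose of dasatinib (dose not stated)”, “XLfit (4-parameter),” for “XLfit,”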

ACHN [31] = assay: as above; conditions: treatment: drug alone; 5 days
Description: as §1, with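 “HTS:” for “HTS combination arm:”, “alone” for “plus a fixed dose of dasatinib (dose not stated)”, “XLfit (4-parameter),” for “XLfit,”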

786-O [32] = assay: as above; conditions: treatment: drug alone; 5 days
Description: as §1, with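 “HTS:” for “HTS combination arm:”, “alone” for “plus a fixed dose of dasatinib (dose not stated)”, “XLfit (4-parameter),” for “XLfit,”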

A498 [33] = assay: as above; conditions: treatment: drug alone; 5 days
Description: as §1, with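 “HTS:” for “HTS combination arm:”, “alone” for “plus a fixed dose of dasatinib (dose not stated)”, “XLfit (4-parameter),” for “XLfit,”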

CAKI-1 [34] = assay: as above; conditions: treatment: drug alone; 5 days
Description: as §1, with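 “HTS:” for “HTS combination arm:”, “alone” for “plus a fixed dose of dasatinib (dose not stated)”, “XLfit (4-parameter),” for “XLfit,”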

SN12C [35] = assay: as above; conditions: treatment: drug alone; 5 days
Description: as §1, with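 “HTS:” for “HTS combination arm:”, “alone” for “plus a fixed dose of dasatinib (dose not stated)”, “XLfit (4-parameter),” for “XLfit,”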

769-P [36] = assay: as above; conditions: treatment: drug alone; 5 days
Description: as §1, with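 “HTS:” for “HTS combination arm:”, “alone” for “plus a fixed dose of dasatinib (dose not stated)”, “XLfit (4-parameter),” for “XLfit,”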

TK-10 [37] = assay: as above; conditions: treatment: drug alone; 5 days
Description: as §1, with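 “HTS:” for “HTS combination arm:”, “alone” for “plus a fixed dose of dasatinib (dose not stated)”, “XLfit (4-parameter),” for “XLfit,”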

UO-31 [38] = assay: AUC of dose-response viability curve, drug alone (arbitrary (AUC of normalised viability)); higher = less growth inhibition; conditions: treatment: drug alone; 5 days
Description: as §1, with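 “HTS:” for “HTS combination arm:”, “alone” for “plus a fixed dose of dasatinib (dose not stated)”, “XLfit (4-parameter),” for “XLfit,”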

ACHN [39] = assay: as above; conditions: treatment: drug alone; 5 days
Description: as §1, with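 “HTS:” for “HTS combination arm:”, “alone” for “plus a fixed dose of dasatinib (dose not stated)”, “XLfit (4-parameter),” for “XLfit,”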

786-O [40] = assay: as above; conditions: treatment: drug alone; 5 days
Description: as §1, with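 “HTS:” for “HTS combination arm:”, “alone” for “plus a fixed dose of dasatinib (dose not stated)”, “XLfit (4-parameter),” for “XLfit,”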

A498 [41] = assay: as above; conditions: treatment: drug alone; 5 days
Description: as §1, with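 “HTS:” for “HTS combination arm:”, “alone” for “plus a fixed dose of dasatinib (dose not stated)”, “XLfit (4-parameter),” for “XLfit,”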

CAKI-1 [42] = assay: as above; conditions: treatment: drug alone; 5 days
Description: as §1, with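 “HTS:” for “HTS combination arm:”, “alone” for “plus a fixed dose of dasatinib (dose not stated)”, “XLfit (4-parameter),” for “XLfit,”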

SN12C [43] = assay: as above; conditions: treatment: drug alone; 5 days
Description: as §1, with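 “HTS:” for “HTS combination arm:”, “alone” for “plus a fixed dose of dasatinib (dose not stated)”, “XLfit (4-parameter),” for “XLfit,”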

769-P [44] = assay: as above; conditions: treatment: drug alone; 5 days
Description: as §1, with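 “HTS:” for “HTS combination arm:”, “alone” for “plus a fixed dose of dasatinib (dose not stated)”, “XLfit (4-parameter),” for “XLfit,”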

TK-10 [45] = assay: as above; conditions: treatment: drug alone; 5 days
Description: as §1, with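 “HTS:” for “HTS combination arm:”, “alone” for “plus a fixed dose of dasatinib (dose not stated)”, “XLfit (4-parameter),” for “XLfit,”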

Cc1cc(C(C)Nc2ccccc2)c2nc(N3CCOCC3)cc(=O)n2c1 (centres undefined) [TGX-221] + Cc1nc(Nc2ncc(C(=O)Nc3c(C)cccc3Cl)s2)cc(N2CCN(CCO)CC2)n1 [dasatinib]
GI50 of drug (UO-31 [1]): 4860 nM
GI50 of drug (A498 [2]): > 10000 nM
GI50 of drug (CAKI-1 [3]): 231 nM
GI50 of drug (SN12C [4]): > 10000 nM
GI50 of drug (TK-10 [5]): > 10000 nM
AUC of dose-response viability curve (UO-31 [6]): 3.16
AUC of dose-response viability curve (ACHN [7]): 1.82
AUC of dose-response viability curve (786-O [8]): 2.04
AUC of dose-response viability curve (A498 [9]): 3.6
AUC of dose-response viability curve (CAKI-1 [10]): 1.83
AUC of dose-response viability curve (SN12C [11]): 2.4
AUC of dose-response viability curve (769-P [12]): 2.01
AUC of dose-response viability curve (TK-10 [13]): 2.35
minimum viability across doses (UO-31 [14]): 0.349
minimum viability across doses (ACHN [15]): 0.424
minimum viability across doses (786-O [16]): 0.299
minimum viability across doses (A498 [17]): 0.949
minimum viability across doses (CAKI-1 [18]): 0.281
minimum viability across doses (SN12C [19]): 0.624
minimum viability across doses (769-P [20]): 0.346
minimum viability across doses (TK-10 [21]): 0.554

COC(=O)Nc1ccc(-c2nc(N3CCOCC3)c3cnn(C4CCN(C(=O)OC)CC4)c3n2)cc1 [WYE-354]
GI50, drug alone (UO-31 [22]): 2570 nM
GI50, drug alone (ACHN [23]): 611 nM
GI50, drug alone (786-O [24]): 476 nM
GI50, drug alone (A498 [25]): 6590 nM
GI50, drug alone (CAKI-1 [26]): 1260 nM
GI50, drug alone (SN12C [27]): 1890 nM
GI50, drug alone (769-P [28]): 2270 nM
GI50, drug alone (TK-10 [29]): 1570 nM
minimum viability across doses (UO-31 [30]): 0.0127
minimum viability across doses (ACHN [31]): 0.167
minimum viability across doses (786-O [32]): 0.346
minimum viability across doses (A498 [33]): 0.409
minimum viability across doses (CAKI-1 [34]): 0.127
minimum viability across doses (SN12C [35]): 0.274
minimum viability across doses (769-P [36]): 0.165
minimum viability across doses (TK-10 [37]): 0.293
AUC of dose-response viability curve (UO-31 [38]): 3.63
AUC of dose-response viability curve (ACHN [39]): 2.21
AUC of dose-response viability curve (786-O [40]): 1.9
AUC of dose-response viability curve (A498 [41]): 3.73
AUC of dose-response viability curve (CAKI-1 [42]): 2.49
AUC of dose-response viability curve (SN12C [43]): 2.54
AUC of dose-response viability curve (769-P [44]): 2.75
AUC of dose-response viability curve (TK-10 [45]): 2.35

COC(=O)Nc1ccc(-c2nc(N3CCOCC3)c3cnn(C4CCN(Cc5cccnc5)CC4)c3n2)cc1 [WYE-687]
GI50, drug alone (UO-31 [22]): 581 nM
GI50, drug alone (ACHN [23]): 551 nM
GI50, drug alone (786-O [24]): 1480 nM
GI50, drug alone (A498 [25]): 4610 nM
GI50, drug alone (CAKI-1 [26]): 577 nM
GI50, drug alone (SN12C [27]): 996 nM
GI50, drug alone (769-P [28]): 1590 nM
GI50, drug alone (TK-10 [29]): 501 nM
minimum viability across doses (UO-31 [30]): 0.00593
minimum viability across doses (ACHN [31]): 0.0636
minimum viability across doses (786-O [32]): 0.441
minimum viability across doses (A498 [33]): 0.351
minimum viability across doses (CAKI-1 [34]): 0.075
minimum viability across doses (SN12C [35]): 0.141
minimum viability across doses (769-P [36]): 0.184
minimum viability across doses (TK-10 [37]): 0.0981
AUC of dose-response viability curve (UO-31 [38]): 2.83
AUC of dose-response viability curve (ACHN [39]): 2.34
AUC of dose-response viability curve (786-O [40]): 2.92
AUC of dose-response viability curve (A498 [41]): 3.76
AUC of dose-response viability curve (CAKI-1 [42]): 2.23
AUC of dose-response viability curve (SN12C [43]): 2.45
AUC of dose-response viability curve (769-P [44]): 2.67
AUC of dose-response viability curve (TK-10 [45]): 2.1
